Structures can show the parent of a compound that is named as a salt.
Experiments:
[1] = Stability of 100 mg tablet formulation with different propyl gallate levels; assay type: physicochemical; settings: for Total Degradation: 100 mg tablet, 40° C./75% RH
Procedure: Next, the stability of 100 mg tablet formulation comprising CYT-0387 Form II was examined in the presence of 0%, 0.2%, 0.5%, or 1.0% propyl gallate at 25° C./60% RH (relative humidity) or 40° C./75% RH for up to 6 months. The degradation profiles were determined at month 0, 1, 3, and 6.

[2] = Solid form hygroscopicity and stability; assay type: physicochemical; settings: conditions suitable for manufacturing and/or storage
Procedure: Dynamic Vapor Sorption: The hygroscopicity of N-(cyanomethyl)-4-(2-(4-morpholinophenylamino)pyrimidin-4-yl)benzamide dihydrochloride monohydrate Form II was evaluated at room temperature using a dynamic vapor sorption (DVS) instrument (TGA Q5000 TA Instruments, New Castle, Del.). Water adsorption and desorption were studied as a function of relative humidity (RH) over the range of 0 to 90% at room temperature. The humidity in the chamber was increased from the initial level 50% RH) to 60% RH and held until the solid and atmosphere reached equilibration. The equilibrium test was continued until passed or expired after 10 hours. At this point, RH was raised 10% higher and the process was repeated until 90% RH was reached and equilibrated. During this period, the water sorption was monitored. For desorption, the relative humidity was decreased in a similar manner to measure a full sorption/desorption cycle. All experiments were operated in dm/dt mode (mass variation over time) to determine the equilibration endpoint. Approximately 4 mg of solid CYT-0387 was used. Data analysis was conducted using Universal Analysis 2000 Version 4.7A (TA Instruments, New Castle, Del., USA).

TGFBR1 [3] = target: T1, TGFBR1 (Homo sapiens (Human), UniProt P36897); assay: In vitro enzyme inhibition assay (LanthaScreen); assay type: biochemical; settings: TGFBR1, n = 3
ALK2 (Acvr1) [4] = target: T2, ALK2 (Acvr1) (Homo sapiens (Human), UniProt Q04771); assay: Biochemical binding assay (DiscoveRx)
Procedure: (§1) In addition, biochemical binding assays (DiscoveRx) and in vitro enzyme inhibition assays (LanthaScreen, Life Technologies) were conducted to determine the binding affinity and inhibition activities of CYT-0387 to Type-I BMPR-kinases (ALK2, ALK3, and ALK6) were conducted. Transforming growth factor beta receptor 1 (TGFBR1, ALK5) was used as a control to determine the selectivity to Type-I BMPR-kinases.

ALK3 (BMPR1a) [5] = target: T3, ALK3 (BMPR1a) (Homo sapiens (Human), UniProt P36894); assay: Biochemical binding assay (DiscoveRx)
Procedure: as §1

ALK6 (BMPR1B) [6] = target: T4, ALK6 (BMPR1B) (Homo sapiens (Human), UniProt O00238); assay: Biochemical binding assay (DiscoveRx)
Procedure: as §1

TGFBR1 [7] = target: T1, TGFBR1; assay: Biochemical binding assay (DiscoveRx)
ALK2 (Acvr1) [8] = target: T2, ALK2 (Acvr1); assay: In vitro enzyme inhibition assay (LanthaScreen); assay type: biochemical; settings: n = 3
Procedure: as §1

ALK3 (BMPR1a) [9] = target: T3, ALK3 (BMPR1a); assay: In vitro enzyme inhibition assay (LanthaScreen); assay type: biochemical; settings: n = 3
Procedure: as §1

ALK6 (BMPR1B) [10] = target: T4, ALK6 (BMPR1B); assay: In vitro enzyme inhibition assay (LanthaScreen); assay type: biochemical; settings: n = 3
Procedure: as §1

[11] = test system: phospho-SMAD1/5/8 in HepG2 cells; assay: BMP6-mediated phospho-SMAD1/5/8 levels in HepG2 cells (immunoblot); assay type: cell-based; settings: for phospho-SMAD1/5/8 levels (normalized percentage): HepG2, 10 ng/mL BMP6 30 minutes, 100% = vehicle
Procedure: HepG2 cells were preincubated for 2 hours with increasing concentrations of CYT-0387 (0.02 to 10 μM CYT387) in the presence of 1% FBS and then stimulated for 30 minutes with 10 ng/mL of BMP6. Protein was extracted from the lysed cells and analyzed using immunoblot analysis with the antibodies specific for phospho-SMAD1 (Ser463/465), phospho-SMAD5 (Ser463/465) and phospho-SMAD8 (Ser465/467) and β-actin. Raw phospho-SMAD1/5/8 levels were quantified using densitometry software (Image Studio) and normalized to β-actin levels. The percentage of phospho-SMAD1/5/8 levels was calculated (100% is equal to phospho-SMAD1/5/8 levels in vehicle treated cells stimulated with 10 ng/mL of BMP6) and summarized in Table 9.

[12] = test system: hyperproliferative diseases (PV, ET, PMF), myelofibrosis; settings: cited from earlier work
[13] = Mass balance/recovery, metabolite profile, pharmacokinetics and safety of radiolabeled CYT-0387; assay type: in vivo, human
Procedure: CYT-0387 is a selective small molecule inhibitor of Janus kinase 1 and 2 (JAK1/JAK2) currently under investigation to treat myelofibrosis. This study evaluated the mass balance/recovery, metabolite profile, pharmacokinetics, and safety of radiolabeled CYT-0387 in humans.
Six healthy individuals (subjects) received a single oral dose of 200 mg CYT-0387 containing ˜100 μCi of [^14C]-CYT-0387. Blood samples were collected up to 21 days or until plasma radioactivity in 2 consecutive samples was below detection limit or urine and feces sampling was discontinued. Urine/feces samples were collected up to 21 days or until ≧90% administered dose was recovered in feces and urine and radioactivity in 2 consecutive sampling intervals were ≦1% administered dose. Plasma concentrations of CYT-0387 and metabolites were measured using LC-MS/MS and total radioactivity assessed by liquid scintillation counting. Metabolite profiling was performed in select urine, feces, and plasma samples. Safety assessments were performed throughout the study.

[14] = single oral dose 200 mg, healthy subjects

T2 sequence (Q04771 21-509): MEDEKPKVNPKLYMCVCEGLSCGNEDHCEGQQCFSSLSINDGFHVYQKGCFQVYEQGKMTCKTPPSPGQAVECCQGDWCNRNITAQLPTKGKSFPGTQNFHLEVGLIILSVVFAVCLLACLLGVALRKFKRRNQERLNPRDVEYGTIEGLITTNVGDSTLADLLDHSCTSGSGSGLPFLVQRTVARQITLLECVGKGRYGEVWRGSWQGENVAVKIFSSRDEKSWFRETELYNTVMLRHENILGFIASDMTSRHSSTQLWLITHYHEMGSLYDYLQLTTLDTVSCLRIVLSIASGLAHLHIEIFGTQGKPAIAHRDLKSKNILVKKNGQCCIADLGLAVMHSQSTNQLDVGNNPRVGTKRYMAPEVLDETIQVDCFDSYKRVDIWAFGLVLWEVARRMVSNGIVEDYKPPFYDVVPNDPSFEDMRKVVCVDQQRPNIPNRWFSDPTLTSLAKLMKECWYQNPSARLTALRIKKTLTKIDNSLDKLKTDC
T1 sequence (P36897 34-503): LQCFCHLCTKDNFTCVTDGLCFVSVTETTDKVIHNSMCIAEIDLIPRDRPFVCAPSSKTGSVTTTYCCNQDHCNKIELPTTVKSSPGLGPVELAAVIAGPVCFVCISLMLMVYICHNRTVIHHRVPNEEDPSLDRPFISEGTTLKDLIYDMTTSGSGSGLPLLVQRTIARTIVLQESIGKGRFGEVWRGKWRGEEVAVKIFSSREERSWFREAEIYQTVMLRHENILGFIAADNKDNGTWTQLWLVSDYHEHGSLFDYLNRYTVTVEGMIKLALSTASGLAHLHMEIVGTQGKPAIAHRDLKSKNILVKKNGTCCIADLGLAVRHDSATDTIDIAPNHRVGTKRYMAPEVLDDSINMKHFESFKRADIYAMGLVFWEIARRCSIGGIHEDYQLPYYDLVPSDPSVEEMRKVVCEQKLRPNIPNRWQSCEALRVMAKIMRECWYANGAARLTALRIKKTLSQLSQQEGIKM
T4 sequence (O00238 14-502): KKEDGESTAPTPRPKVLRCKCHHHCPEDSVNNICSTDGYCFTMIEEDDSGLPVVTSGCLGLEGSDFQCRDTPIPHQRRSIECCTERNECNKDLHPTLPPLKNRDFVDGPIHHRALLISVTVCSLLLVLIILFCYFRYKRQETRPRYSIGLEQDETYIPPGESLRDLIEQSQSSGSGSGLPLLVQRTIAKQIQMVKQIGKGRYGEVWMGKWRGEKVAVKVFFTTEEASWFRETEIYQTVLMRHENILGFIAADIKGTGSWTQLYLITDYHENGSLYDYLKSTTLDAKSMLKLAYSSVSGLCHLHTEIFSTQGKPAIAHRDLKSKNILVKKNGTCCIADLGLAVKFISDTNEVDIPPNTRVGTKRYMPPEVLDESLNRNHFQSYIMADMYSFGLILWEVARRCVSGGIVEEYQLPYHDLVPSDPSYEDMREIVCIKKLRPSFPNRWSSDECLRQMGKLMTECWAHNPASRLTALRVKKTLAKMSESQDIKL
T3 sequence (P36894 24-532): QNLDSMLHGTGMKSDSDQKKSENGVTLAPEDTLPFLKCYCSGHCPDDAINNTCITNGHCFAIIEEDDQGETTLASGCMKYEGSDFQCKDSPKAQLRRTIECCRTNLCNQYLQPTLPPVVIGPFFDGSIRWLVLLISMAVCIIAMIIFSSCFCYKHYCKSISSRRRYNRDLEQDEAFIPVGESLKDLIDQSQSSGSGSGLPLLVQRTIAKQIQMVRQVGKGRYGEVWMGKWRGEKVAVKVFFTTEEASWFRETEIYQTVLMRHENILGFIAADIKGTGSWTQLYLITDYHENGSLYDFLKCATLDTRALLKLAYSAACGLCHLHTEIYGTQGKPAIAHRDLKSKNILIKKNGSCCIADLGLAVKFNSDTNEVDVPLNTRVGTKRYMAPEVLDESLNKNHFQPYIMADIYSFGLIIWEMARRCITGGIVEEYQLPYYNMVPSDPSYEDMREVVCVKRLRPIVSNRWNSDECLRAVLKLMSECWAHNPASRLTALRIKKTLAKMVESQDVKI

Compound: N#CCNC(=O)c1ccc(-c2ccnc(Nc3ccc(N4CCOCC4)cc3)n2)cc1 [CYT-0387 Form II, N-(cyanomethyl)-4-(2-(4-morpholinophenylamino)pyrimidin-4-yl)benzamide dihydrochloride monohydrate Form II]
- Total Degradation ([1]; propyl gallate 0%, month 0): 0.10%
- Total Degradation ([1]; propyl gallate 0%, month 1): 0.68%
- Total Degradation ([1]; propyl gallate 0%, month 3): 1.01%
- Total Degradation ([1]; propyl gallate 0%, month 6): 1.28%
- Total Degradation ([1]; propyl gallate 0.2%, month 0): 0.10%
- Total Degradation ([1]; propyl gallate 0.2%, month 1): 0.34%
- Total Degradation ([1]; propyl gallate 0.2%, month 3): 0.67%
- Total Degradation ([1]; propyl gallate 0.2%, month 6): 0.80%
- Total Degradation ([1]; propyl gallate 0.5%, month 0): 0.11%
- Total Degradation ([1]; propyl gallate 0.5%, month 1): 0.39%
- Total Degradation ([1]; propyl gallate 0.5%, month 3): 0.67%
- Total Degradation ([1]; propyl gallate 0.5%, month 6): 0.95%
- Total Degradation ([1]; propyl gallate 1.0%, month 0): 0.14%
- Total Degradation ([1]; propyl gallate 1.0%, month 1): 0.44%
- Total Degradation ([1]; propyl gallate 1.0%, month 3): 0.87%
- Total Degradation ([1]; propyl gallate 1.0%, month 6): 1.34%
- degradation in 100 mg tablet ([1]; 25° C./60% RH, propyl gallate at 0.2%, 0.5%, and 1.0% (data not shown)): reduced
- thermodynamic stability of the dihydrochloride salt form [2]: thermodynamically stable form

Compound: N#CCNC(=O)c1ccc(-c2ccnc(Nc3ccc(N4CCOCC4)cc3)n2)cc1 [CYT-0387, N-(cyanomethyl)-4-(2-(4-morpholinophenylamino)pyrimidin-4-yl)benzamide]
- IC50 (TGFBR1 [3]): 205 nM
- Kd (ALK2 (Acvr1) [4]): 25 nM
- Kd (ALK3 (BMPR1a) [5]): 1000 nM
- Kd (ALK6 (BMPR1B) [6]): 19 nM
- Kd (TGFBR1 [7]): 670 nM
- IC50 (ALK2 (Acvr1) [8]): 8 nM
- IC50 (ALK3 (BMPR1a) [9]): 405 nM
- IC50 (ALK6 (BMPR1B) [10]): 107 nM
- phospho-SMAD1/5/8 levels (normalized percentage) ([11]; 0.020 μM): 83%
- phospho-SMAD1/5/8 levels (normalized percentage) ([11]; 0.039 μM): 80%
- phospho-SMAD1/5/8 levels (normalized percentage) ([11]; 0.078 μM): 91%
- phospho-SMAD1/5/8 levels (normalized percentage) ([11]; 0.156 μM): 96%
- phospho-SMAD1/5/8 levels (normalized percentage) ([11]; 0.313 μM): 88%
- phospho-SMAD1/5/8 levels (normalized percentage) ([11]; 0.625 μM): 91%
- phospho-SMAD1/5/8 levels (normalized percentage) ([11]; 1.25 μM): 65%
- phospho-SMAD1/5/8 levels (normalized percentage) ([11]; 2.5 μM): 52%
- phospho-SMAD1/5/8 levels (normalized percentage) ([11]; 5.0 μM): 40%
- phospho-SMAD1/5/8 levels (normalized percentage) ([11]; 10.0 μM): 31%
- effect on BMP6-mediated phospho-SMAD1/5/8 levels ([11]; 0.02 to 10 μM, HepG2): dose-dependent inhibition
- efficacy in treating hyperproliferative diseases (PV, ET, PMF) ([12]; clinical studies): effective
- anemia and/or spleen responses ([12]; patients having myelofibrosis): improvement
- excreted in feces ([13]; feces): 12.6 % of the dose
- recovery of radioactivity in feces ([13]; feces): 69.3%
- overall recovery of radioactivity ([13]; feces and urine): 96.7%
- share of circulating radioactivity ([13]; plasma): 17.3%
- time of maximum concentration of drug-derived radioactivity in plasma ([13]; postdose, single oral 200 mg [14C]-CYT-0387): 2.5 h
- most frequently reported AEs [13, 14]: dizziness, headache, and nausea
- serious or severe adverse events [13, 14]: No Grade 3 or 4 AEs, SAEs, or AEs leading to study discontinuation
- tolerability [13, 14]: well tolerated
- recovery of radioactivity in urine ([13]; urine): 27.5%
